The values that follow come from ChEMBL document CHEMBL1201862, “PubChem BioAssay data set” (2004).

What all share (test): NCI anticancer screen, dose series, 48 h
Test [1] relates to ACHN.
The subject of test [2] is IGROV-1.
For test [3], the system named is KM12.
In test [4] the test system is M14.
Test [5] concerns MCF7.
Test [6] deals with MDA-MB-231.
Test [7] relates to MDA-MB-435.
Test [8] deals with NCI-H23.
Test [9] has as its system NCI-H522.
For test [10], the system named is OVCAR-3.
Test [11] deals with OVCAR-4.
The subject of test [12] is OVCAR-5.
The subject of test [13] is OVCAR-8.
Test [14] concerns RPMI-8226.
Test [15] deals with SF-295.
For test [16], the system named is SK-OV-3.
Test [17] has as its system TK-10.
In test [18] the test system is UACC-257.
For test [19], the system named is UO-31.

Each structure is given as a SMILES string.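 A five-concentration, 48-hour dose response in 96-well plates underlies each endpoint, interpolated linearly between surrounding concentrations. GI50 marks 50% less growth.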 The source made the active and inactive calls. Cut-off read from the data, not from the text of the source: active = GI50 up to about 1.1 µM and inactive = higher. Where a SMILES comes first, the peptide text is derived from it. Bridges are numbered along the chain shown (N, C = ends). The star is where a group is joined. Cbz = O=C(OCc1ccccc1)* A value given as a limit tells only on which side of the number the result lay.

Regarding `N#CC1CNC(N)NC1N` (stereo not given), the GI50 in test [1], in test [2], in [3], in [4], in test [5] and in test [6] was > 100 µM (inactive) throughout. The GI50 in test [7], in test [8], in test [9], in test [10], in [11] and in test [12] was > 100 µM (inactive) each time. The GI50 in test [13], in [14], in test [15], in test [16], in [17] and in [18] was > 100 µM (inactive) in each case.

As to `O=[N+]([O-])c1ccc(C2c3c(O)nc(S)nc3Oc3nc(S)nc(O)c32)cc1`, the GI50 in test [1], in test [2], in test [3], in test [4], in test [5] and in test [6] was > 100 µM (inactive) in each case. Also, the GI50 in [7], in test [8], in test [9], in [10], in [11] and in [12] was > 100 µM (inactive) throughout. In addition, the GI50 in test [13], in [14], in test [15], in test [17], in [18] and in test [19] was > 100 µM (inactive) throughout.

Consider `CC12CC(=O)C3C(CCC4=CC(=O)CCC43C)C1CC=C2CC(=O)O` (stereo not given), for which the GI50 in test [1], in [2], in test [3], in [4], in [5] and in test [6] was > 100 µM (inactive) each time. For the same molecule, the GI50 was > 100 µM (inactive) in test [7]; > 100 µM (inactive) in test [8]; > 100 µM (inactive) in [9]; 98.2 µM (inactive) in test [10]; > 100 µM (inactive) in test [11]; > 100 µM (inactive) in [12]. For the same molecule, the GI50 in [13], in test [14], in test [15], in test [16], in [17] and in [18] was > 100 µM (inactive) each time. Further, in [19], the GI50 is > 100 µM (inactive).

For `O=[N+]([O-])/C=C/c1ccc2ccccc2c1`, the GI50 is 1.96 µM (inactive) in test [1]; 2.79 µM (inactive) in test [2]; 1.77 µM (inactive) in [3]; 3.99 µM (inactive) in [4]; 1.86 µM (inactive) in test [5]; 3.82 µM (inactive) in test [6]. Also, the GI50 in test [7] was 2.04 µM (inactive); in test [8], 3.6 µM (inactive); in test [9], 9.68 µM (inactive); in [10], 2.86 µM (inactive); in test [11], 13.3 µM (inactive); in test [12], 3.52 µM (inactive). Besides, the GI50 is 2.69 µM (inactive) in [13]; 0.372 µM (active) in test [14]; 3.99 µM (inactive) in test [15]; 2.57 µM (inactive) in test [16]; 6.21 µM (inactive) in test [17]; 2.6 µM (inactive) in test [18]. For the same molecule, in test [19], the GI50 is 7.41 µM (inactive).

As for `O=c1[nH]c(=O)n(COCc2ccccc2)c2ccccc12`, the GI50 in test [1] is 32.1 µM (inactive); in [2], 18.4 µM (inactive); in [3], 59.8 µM (inactive); in test [4], > 100 µM (inactive); in test [5], 38 µM (inactive); in test [6] it was 49.2 µM (inactive). Further, the GI50 in test [7] is > 100 µM (inactive); in [10], 87.3 µM (inactive); in test [11], 44.3 µM (inactive); in [12], > 100 µM (inactive); in test [13], 40.9 µM (inactive); in [15], > 100 µM (inactive). Moreover, the GI50 in test [16] was 89.9 µM (inactive); in test [17], 51.5 µM (inactive); in [18], 53.7 µM (inactive); in [19], 29.1 µM (inactive).

In the case of `COC(=O)C1CCCCNC(=O)CCC(NC(=O)OCc2ccccc2)C(=O)N1` (stereo not drawn) (Cbz-Glu-Lys-OMe; lactam 1-2; configuration not given here), the GI50 in [1] is > 100 µM (inactive); in test [2], > 100 µM (inactive); in test [3], > 100 µM (inactive); in test [4], > 100 µM (inactive); in [5], > 100 µM (inactive); in [6], 62.7 µM (inactive). The GI50 in test [7], in test [8], in test [9], in test [10], in test [11] and in test [12] was > 100 µM (inactive) in each case. The GI50 in [13] was > 100 µM (inactive); in test [14], > 100 µM (inactive); in [15], 50.1 µM (inactive); in [16] it was 56.1 µM (inactive); in [17] it was > 100 µM (inactive); in [18], > 100 µM (inactive). In [19], the GI50 was > 100 µM (inactive).

`CO[C@@]12C[C@@H](CNC(=O)c3cc(Br)c[nH]3)O[C@@H]1NC(=O)N2`: the GI50 in test [1], in test [2], in [3], in test [4], in [5] and in test [6] was > 100 µM (inactive) in each case. For the same molecule, the GI50 in test [7], in [8], in test [9], in test [10], in test [11] and in test [12] was > 100 µM (inactive) in each case. Also, the GI50 in [13], in test [14], in [15], in test [16], in test [17] and in test [18] was > 100 µM (inactive) each time. Besides, in test [19], the GI50 was > 100 µM (inactive).

Consider `O=[N+]([O-])/C(C(Cl)=C(Cl)Cl)=C1\Nc2ccc([N+](=O)[O-])cc2N1`, for which the GI50 is > 100 µM (inactive) in test [1]; > 100 µM (inactive) in test [3]; > 100 µM (inactive) in test [4]; > 100 µM (inactive) in [5]; 45.2 µM (inactive) in [6]; > 100 µM (inactive) in test [7]. For the same molecule, the GI50 in test [8] is > 100 µM (inactive); in test [9] it was 13.5 µM (inactive); in test [10], > 100 µM (inactive); in test [11], > 100 µM (inactive); in test [12] it was > 100 µM (inactive); in [14], 55 µM (inactive). In addition, the GI50 is > 100 µM (inactive) in test [15]; > 100 µM (inactive) in test [16]; > 100 µM (inactive) in [17]; > 100 µM (inactive) in test [18]; 14.1 µM (inactive) in test [19].
